In patent publication US20230299326A1, “REDOX FLOW BATTERY” (MITSUBISHI HEAVY INDUSTRIES, LTD., priority 2020, published 2023):
≈ marks a conversion by molar mass, not a printed value.

Legend:
[1] = Cyclic voltammogram of the hydroquinone pentamer (redox potential); assay type: physicochemical; conditions: glassy carbon working electrode, Ag/AgCl (3 M sodium chloride solution) reference, platinum wire counter electrode, sweep rate 25 mV/sec
Description: A cyclic voltammogram of the hydroquinone pentamer thus obtained was obtained. The measurement was made using a 5-mm diameter glassy carbon as the working electrode, Ag/AgCl (3 M sodium chloride solution) as the reference electrode, and platinum wire as the counter electrode at a sweep rate of 25 mV/sec.

[2] = Solubility of the hydroquinone pentamer; assay type: physicochemical; conditions: per hydroquinone unit

- redox potential [1]: -0.75 V vs. SHE
- solubility [2]: 1800 mM (≈ 1100 mg/mL)
Structure (SMILES): Oc1cc2c(O)cc1Cc1cc(O)c(cc1O)Cc1cc(O)c(cc1O)Cc1cc(O)c(cc1O)Cc1cc(O)c(cc1O)C2 [hydroquinone pentamer]
